Tests used:
Type in all cases: in vivo, maize
[1] = tested on: ZEAMA Sileno; experiment: Seed treatment with safener; post-emergence herbicide application; parameters: Reduction [Difference]: scale not given here; conditions: Final assessment; for Reduction [%] / Reduction [Difference]: Cyprosulfamide 0.5 g a.i./kg seed; for Reduction [Difference]: damage without safener - damage with safener; for HER effect + SAF (crop damage with safener): Cyprosulfamide seed treatment 0.5 g a.i./kg seed; for HER effect (crop damage, herbicide without safener): no safener
How it was run: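 Maize seeds slurry-coated with WP safener (g a.i./kg seed) or left untreated, sown in sandy loam and grown in greenhouse. WP herbicide sprayed post-emergence at BBCH11-13 in 300 l/ha water with wetting agent and adjuvants (e.g. Mero 1.5 l/ha, ammonium sulphate 2 kg/ha); means of at least 2 replicates.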

[2] = tested on: ZEAMA Sileno; experiment: Treatment 1 day before (safener applied one day before herbicide, post-emergence); parameters: key to Reduction [Difference]: percentage points of visually scored % crop damage vs untreated control; conditions: for Reduction [%] / Reduction [Difference]: cyprosulfamide 100 g a.i./ha 1 day before; for HER effect + SAF: cyprosulfamide 100 g a.i./ha applied 1 day before; for HER effect + SAF / HER effect: Final assessment; for HER effect: no safener
Description: Seeds of crops (spring wheat, TRZAS; spring barley, HORVS; maize, ZEAMA) were placed in sandy loam soil in pots of a diameter of 7-8 cm, covered with soil, and cultivated in a greenhouse under good growth conditions until plants were at the 1-3 leaf stage (BBCH 11-13). For split safener and herbicide treatment, first the safener was applied followed by the herbicide treatment on the following day. The safener and herbicides were formulated as WP and sprayed onto the green parts of the plants as an aqueous suspension at an equivalent water application rate of 300 1/ha, with addition of wetting agent and adjuvants (e.g. Mero, 1.5 1/ha; ammonium sulphate, 2 kg/ha). An equivalent set of plants was treated with the herbicides but without the prior safener treatment.
After application, the test plants were kept in the greenhouse under good growth conditions. 10 and 21 days after treatment (DAT) with the herbicide, % crop damage observed on the treated plants was scored visually in comparison to control plants that had not received any safener or herbicide treatment.

[3] = tested on: ZEAMA Sileno; experiment: Tank-mix; post-emergence, crop damage with and without safener; conditions: for HER effect + SAF / HER effect: Final assessment; for HER effect: no safener
How it was run: (§1)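 Crops in sandy loam in the greenhouse were sprayed at the 1–3-leaf stage, 2–3 weeks after sowing, with herbicide/safener combinations or the single actives at various dosages in 300 l/ha water. Injury was scored visually 1–3 weeks after treatment as % versus untreated plants (0% none, 100% complete kill).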

[4] = tested on: ZEAMA Abraxas; experiment: as above; conditions: for HER effect + SAF / HER effect: Final assessment; for HER effect: no safener
How it was run: as §1

[5] = HER 32 g a.i./ha, cyprosulfamide 100 g a.i./ha
[6] = HER dose 32 g a.i./ha + cyprosulfamide 100 g a.i./ha tank-mix
[7] = HER 8 g a.i./ha, cyprosulfamide 50 g a.i./ha
[8] = HER dose 8 g a.i./ha + cyprosulfamide 50 g a.i./ha tank-mix
[9] = HER 2 g a.i./ha, cyprosulfamide 50 g a.i./ha
[10] = HER 2 g a.i./ha, cyprosulfamide 50 g a.i./ha, damage without safener - damage with safener
[11] = HER dose 2 g a.i./ha + cyprosulfamide 50 g a.i./ha tank-mix
[12] = HER dose 2 g a.i./ha, 0% = no injury, 100% = complete kill

Row | SMILES | Reduction [%] ([1]; HER dose 8 g a.i./ha) | Reduction [Difference] ([1]; HER dose 8 g a.i./ha) | HER effect + SAF (crop damage with safener) ([1]; HER dose 8 g a.i./ha) [%] | HER effect (crop damage, herbicide without safener) ([1]; HER dose 8 g a.i./ha) [%] | Reduction [%] ([1]; HER dose 32 g a.i./ha) | Reduction [Difference] ([1]; HER dose 32 g a.i./ha) | HER effect + SAF (crop damage with safener) ([1]; HER dose 32 g a.i./ha) [%] | HER effect (crop damage, herbicide without safener) ([1]; HER dose 32 g a.i./ha) [%] | Reduction [%] ([2]; HER 32 g a.i./ha) | Reduction [Difference] ([2]; HER 32 g a.i./ha) | HER effect + SAF ([2]; HER dose 32 g a.i./ha) [%] | HER effect ([2]; HER dose 32 g a.i./ha) [%] | Reduction [%] ([2]; HER 8 g a.i./ha) | Reduction [Difference] ([2]; HER 8 g a.i./ha) | HER effect + SAF ([2]; HER dose 8 g a.i./ha) [%] | HER effect ([2]; HER dose 8 g a.i./ha) [%] | Reduction [%] [3, 7] [%] | Reduction [Difference] [3, 7] | HER effect + SAF [3, 8] [%] | HER effect ([3]; HER dose 8 g a.i./ha) [%] | also measured
1 | CC1(C(=O)NC2C=CC(C(=O)OCCSCc3ccccc3)C2)CC(c2cc(F)cc(F)c2)=NO1 (stereo not drawn) [Example 1.27] | 83 | 25 | 5 | 30 | 75 | 45 | 15 | 60 | 67 | 40 | 20 | 60 | – | – | – | – | – | – | – | – | Reduction [%] [3, 5]: 67%; Reduction [Difference] [3, 5]: 40; HER effect + SAF [3, 6]: 20%; HER effect ([3]; HER dose 32 g a.i./ha): 60%
2 | CN(C)C(=O)SCCOC(=O)C1C=CC(NC(=O)C2(C)CC(c3cc(F)cc(F)c3)=NO2)C1 (stereo not drawn) [Example 1.29] | 100 | 60 | 0 | 60 | 93 | 70 | 5 | 75 | 73 | 55 | 20 | 75 | 67 | 40 | 20 | 60 | 67 | 40 | 20 | 60 | Reduction [%] [3, 5]: 60%; Reduction [Difference] [3, 5]: 45; HER effect + SAF [3, 6]: 30%; HER effect ([3]; HER dose 32 g a.i./ha): 75%
3 | CC1(C(=O)NC2C=CC(C(=O)O)C2)CC(c2cc(F)cc(F)c2)=NO1 (stereo not drawn) [Example 1.36] | 94 | 75 | 5 | 80 | 87 | 65 | 10 | 75 | 67 | 50 | 25 | 75 | 69 | 55 | 25 | 80 | 63 | 50 | 30 | 80 | Reduction [%] ([1]; HER dose 2 g a.i./ha): 88%; Reduction [Difference] ([1]; HER dose 2 g a.i./ha): 35; HER effect + SAF (crop damage with safener) ([1]; HER dose 2 g a.i./ha): 5%; HER effect (crop damage, herbicide without safener) ([1]; HER dose 2 g a.i./ha): 40%; Reduction [%] ([2]; HER 2 g a.i./ha): 63%; Reduction [Difference] ([2]; HER 2 g a.i./ha): 25; HER effect + SAF ([2]; HER dose 2 g a.i./ha): 15%; HER effect ([2]; HER dose 2 g a.i./ha): 40%; Reduction [%] [3, 9]: 50%; Reduction [Difference] [3, 10]: 20; HER effect + SAF [3, 11]: 20%; HER effect [3, 12]: 40%
4 | COC(=O)C1C=CC(NC(=O)C2(C)CC(c3cc(F)cc(Cl)c3)=NO2)C1 (stereo not drawn) [Example 1.21] | – | – | – | – | 71 | 25 | 10 | 35 | 57 | 20 | 15 | 35 | – | – | – | – | – | – | – | – | Reduction [%] [4, 7]: 71%; Reduction [Difference] [4, 7]: 25; HER effect + SAF [4, 8]: 10%; HER effect ([4]; HER dose 8 g a.i./ha): 35%
5 | CCOC(=O)C1C=CC(NC(=O)C2(CF)CC(c3cc(F)cc(F)c3)=NO2)C1 (stereo not drawn) [Example 1.17] | 95 | 90 | 5 | 95 | 82 | 70 | 15 | 85 | 59 | 50 | 35 | 85 | 63 | 60 | 35 | 95 | 53 | 50 | 45 | 95 | Reduction [%] ([1]; HER dose 2 g a.i./ha): 100%; Reduction [Difference] ([1]; HER dose 2 g a.i./ha): 45; HER effect + SAF (crop damage with safener) ([1]; HER dose 2 g a.i./ha): 0%; HER effect (crop damage, herbicide without safener) ([1]; HER dose 2 g a.i./ha): 45%; Reduction [%] ([2]; HER 2 g a.i./ha): 56%; Reduction [Difference] ([2]; HER 2 g a.i./ha): 25; HER effect + SAF ([2]; HER dose 2 g a.i./ha): 20%; HER effect ([2]; HER dose 2 g a.i./ha): 45%; Reduction [%] [3, 9]: 67%; Reduction [Difference] [3, 10]: 30; HER effect + SAF [3, 11]: 15%; HER effect [3, 12]: 45%
6 | COCCOC(=O)C1C=CC(NC(=O)C2(CCl)CC(c3cc(F)cc(F)c3)=NO2)C1 (stereo not drawn) [Example 1.1] | 100 | 30 | 0 | 30 | 100 | 70 | 0 | 70 | 79 | 55 | 15 | 70 | – | – | – | – | – | – | – | – | Reduction [%] [4, 5]: 84%; Reduction [Difference] [4, 5]: 80; HER effect + SAF [4, 6]: 15%; HER effect ([4]; HER dose 32 g a.i./ha): 95%

Source: patent US20230240297A1, “SELECTIVE HERBICIDES BASED ON SUBSTITUTED ISOXAZOLIN CARBOXAMIDES AND CYPROSULFAMIDE” (Bayer Aktiengesellschaft, priority 2020, published 2023)
